Experimental data as given in patent US12110316B2, “Cleavable activators of CXCR3 and methods of use” (University of Pittsburgh—Of the Commonwealth System of …, priority 2018, dated 2024).

Test system: choroidal neovascularization (CNV)
Experiment: Laser-induced choroidal neovascularization (CNV) mouse model
Format: in vivo
Details: female C57BL/6J mice; 1 μg (FIG. 1A) or 3 μg (FIG. 1B) peptide injected in 1 μl in one eye immediately after laser; scramble peptide in contralateral eye; measured seven days after laser
Experimental: Since the histidine to serine substitution is a non-conserved amino acid change, experiments were performed to confirm that the engineered peptide retained the ability to block angiogenesis and fibrosis in a mouse model of choroidal neovascularization (CNV).
Mouse CNV was induced by laser photocoagulation-induced rupture of Bruch's membrane as previously described. Briefly, 7- to 8-week-old female C57BL/6J mice were anesthetized with ketamine hydrochloride (100 mg/kg body weight), and pupils were dilated with 1% tropicamide. Three burns of 532-nm diode laser photocoagulation (spot size, […]; duration, 0.1 sec; power, 120 mW) were delivered to each retina with the slit lamp delivery system of an OcuLight GL diode laser (Iridex, Mountain View, CA), using a coverslip as a contact lens to view the retina. Burns were performed at the 9, 12, and 3 o'clock positions of the posterior pole of the retina. […]
Immediately after laser treatment, mice were injected with either 1 μg (FIG. 1A) or 3 μg (FIG. 1B) of Peptide 110 (SEQ ID NO: 2), or one of three positive control peptides (Peptide 102, Peptide 105 or Peptide 107), in a volume of 1 μl in one eye and the contralateral eyes were injected with scramble peptide as control. […] After three washes with PBST, choroids were mounted on glass slides and were examined by fluorescence microscopy. […]

PESKAIKNLLKAVHKEMSKRSP [Peptide 110, modified fragment of human CXCL10 with a cathepsin G and neutrophil elastase cleavage site]
choroidal neovascularization (total area of choroidal NV at each rupture site); anti-angiogenic activity: significant reduction
